The record followed here is patent US20190313638A1, “ACTIVE COMPOUND COMBINATIONS” (priority 2016, published 2019).

The series can be described thus: Log P by HPLC on reversed phase columns (EEC directive 79/831 Annex V.A8). In kind it is physicochemical. How it is done: Measurement of Log P values was performed according to EEC directive 79/831 Annex V.A8 by HPLC (High Performance Liquid Chromatography) on reversed phase columns with the following methods:
Calibration was done with straight-chain alkan2-ones (with 3 to 16 carbon atoms) with known Log P values (measurement of Log P values using retention times with linear interpolation between successive alkanones). Lambda-max-values were determined using UV-spectra from 200 nm to 400 nm and the peak values of the chromatographic signals.

One may read the chromatographic logP as lipophilicity estimated from chromatographic retention. Read a low chromatographic logP as lower lipophilicity. Turning to `CCN(C)/C=N/c1cc(C)c(Oc2ccccc2)cc1Br` [Compound (I-4), N′-(2-bromo-5-methyl-4-phenoxyphenyl)-N-ethyl-N-methylimidoformamide], the chromatographic logP amounted to 4.38 ([a] LC-UV, acidic range, 0.1% formic acid in water and acetonitrile as eluent); 4.33 ([b] LC-UV, neutral range, 0.001 molar ammonium acetate solution in water and acetonitrile as eluent).
